In patent US6541514B2, “Process for the manufacture of 117Sn diethylenetriaminepentaacetic acids” (Brookhaven Science Associates, LLC, priority 2001, dated 2003):
Where two headings read alike, the source gives them in different places.

How the values were obtained:
[1] = cited from earlier work; for relief of bone pain: humans
[2] = cited from earlier work; for myelosuppression / bone marrow toxicity: in vivo
[3] = tested on: Chinese hamster V79 cells; test: Radiotoxicity in cultured mammalian cells (colony survival); type: cell-based; conditions: 14 h labeling, 72 h at 10.5° C.
Experimental: The present study examines the radiotoxicity of composition of the invention when incorporated into cultured mammalian cells.
The cells were then resuspended in fresh culture medium and maintained at 10.5° C. on a rocker-roller for 72 h. Cells were then washed again, serially diluted, and seeded into culture dishes. After 1 week the colonies were stained and counted, the surviving fraction compared to unlabeled controls was determined.

[4] = in vivo; cited from earlier work

**Q.** For O=P([O-])(O)CN(CCN(CP(=O)([O-])O)CP(=O)(O)O)CP(=O)([O-])O.[153Sm+3] [^153Sm-EDTMP, ^153Sm ethylenediaminetetramethylenephosphonate (EDTMP) complex], which “duration of pain relief / response” value ([1]; patients) is on record?
**A.** four to forty weeks

**Q.** And the “time to pain relief / clinical benefit after administration” value (shortened to “time to pain relief / clinical benefit”) ([1]; patients)?
**A.** within two weeks

**Q.** And the “myelosuppression / bone marrow toxicity” value [2]?
**A.** Reversible myelosuppression

**Q.** Which “relief of bone pain” value [1] does the source give for “^117mSn (Sn^4+) diethylenetriaminepentaacetic acid (DTPA) [^117mSn(Sn^4+)DTPA]” here?
**A.** effective agent for palliation of pain caused by bone metastases

**Q.** And the “relief of bone pain” value ([1]; listed as 117mSn (Sn^4+) DTPA)?
**A.** dose-dependent relief of bone pain

**Q.** And the “myelosuppression / bone marrow toxicity” value [2]?
**A.** no substantial toxicity to marrow tissues

**Q.** What about the “myelosuppression / bone marrow toxicity” value ([2]; listed as 117mSn (Sn^4+) DTPA) of the same compound?
**A.** None of the ^117mSn (Sn^4+) DTPA compositions used in WO 95/29706 exhibited bone marrow toxicity

**Q.** What about the “cellular uptake required to achieve 37% survival” value [3] of the same compound?
**A.** 0.95 mBq/cell

**Q.** What about the “bone uptake and retention compared with 32P orthophosphate, 153Sm-EDTMP, 186Re-HEDP and 89SrCl2” value [4] of the same compound?
**A.** higher bone uptake and retention

**Q.** For [89Sr+2].[Cl-].[Cl-] [^89Sr, ^89SrCl2], which “duration of pain relief / response” value ([1]; patients) is on record?
**A.** three to six months

**Q.** And the “patients with bone pain / symptom relief” value ([1]; patients)?
**A.** 60 to 80%

**Q.** And the “time to pain relief / clinical benefit” value ([1]; patients)?
**A.** two to four weeks after injection

**Q.** What about the “decrease in platelet count” value ([2]; four weeks after therapy) of the same compound?
**A.** 30%

**Q.** And the “biological half-life in normal bone” value [4]?
**A.** 14 days

**Q.** What about the “biological half-life in osteoblastic metastases” value [4] of the same compound?
**A.** exceeds 50 days

**Q.** Which “duration of pain relief / response” value ([1]; patients) does the source give for O=[32P](O)(O)O [^32P orthophosphate] here?
**A.** two to four months

**Q.** And the “time to pain relief / clinical benefit” value ([1]; patients)?
**A.** within five to fourteen days

**Q.** And the “increase in uptake in bone around osseous metastases as compared to normal bone” value [4]?
**A.** 3- to 5 fold
